Test results as given in PubChem BioAssay AID651630 (Sanford-Burnham Center for Chemical Genomics, 2012).
Active and inactive are the calls of the source.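 Rule for the calls: active = lipid-stain IC50 at or below a set limit, with nuclear-stain toxicity IC50 at least five times higher; inactive = the rest.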

What was measured:
DAPI = experiment: TAG lipid buildup inhibition with viability readout – cell-based, panel, Nile Red and DAPI fluorescence, H9c2, dose response (AID 651630); conditions: H9c2 cells, DAPI nuclear fluorescence (cytotoxicity counter-readout), oleic acid;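 note: cells exposed to compound overnight before fixation and staining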
TAG = experiment: as above; conditions: H9c2 cells, Nile Red TAG fluorescence, oleic acid

SMILES | IC50 cytotoxicity (DAPI nuclear signal decrease) (DAPI; mean of runs) | IC50 cytotoxicity (DAPI nuclear signal decrease) (DAPI; run 1) [µM] | IC50 cytotoxicity (DAPI nuclear signal decrease) (DAPI; run 2) [µM] | IC50 (TAG; mean of runs) | IC50 (TAG; run 1) [µM] | IC50 (TAG; run 2) [µM]
Cc1ccc(CC2(OCCN(C)C)CCC(C(C)(C)C)CC2)cc1 (stereo unspecified) | 23.5 µM (inactive) | 23.2 | 23.8 | > 25 µM (inactive) | > 25 | > 25
CCCC(=O)Nc1nc2ccc(NC(=O)c3c(F)c(F)c(OC)c(F)c3F)cc2s1 | > 25 µM (inactive) | > 25 | > 25 | 6.21 µM | 6.68 | 5.73
CC(Sc1nc(NCc2ccccc2)nc(N2CCOCC2)n1)C(=O)Nc1ccccc1 (stereo unspecified) | – | > 25 | > 25 | 1.44 µM | 1.29 | 1.58
Cc1cc(C)cc(-n2c3ccc(NC(=O)Cc4cccc5ccccc45)cc3c(=O)n2C)c1 | > 25 µM (inactive) | > 25 | > 25 | – | 21.7 | > 25
O=C(CC1C[C@H](C(=O)N2CCCCC2)[C@@]2(CCc3ccccc3)c3[nH]c4ccccc4c3CCN2C1=O)NCc1cccc(C(F)(F)F)c1 (stereo partly specified) | > 25 µM (inactive) | > 25 | > 25 | 5.34 µM | 4.84 | 5.84
NC(Cc1ccc(Cl)cc1)c1csc(NC(=O)NCCc2ccccc2)n1 (stereo unspecified) | 19.7 µM (inactive) | 19 | 20.4 | > 25 µM (inactive) | > 25 | > 25
COc1ccc([C@H]2CC(=O)C=C(c3ccc(OC)cc3OC)C2)cc1 | > 25 µM (inactive) | > 25 | > 25 | > 25 µM (inactive) | > 25 | > 25
COc1cc(OC)cc(C(=O)N2CC(=O)Nc3ccccc32)c1 | > 25 µM (inactive) | > 25 | > 25 | > 25 µM (inactive) | > 25 | > 25
C[C@H]1CN([C@@H](C)CO)C(=O)Cc2cc(NC(=O)CCC(F)(F)F)ccc2O[C@H]1CN(C)S(=O)(=O)c1ccc(Cl)cc1 | > 25 µM (inactive) | > 25 | > 25 | > 25 µM (inactive) | > 25 | > 25
Cc1[nH]c2ccccc2c1/C=N/Nc1nc(Nc2ccc(F)cc2)nc(N2CCOCC2)n1 | > 25 µM (inactive) | > 25 | > 25 | 20.6 µM (inactive) | 21.6 | 19.7
CCCCCC(/C=N/Nc1ccc(S(=O)(=O)N2CCOCC2)cc1[N+](=O)[O-])=C\c1ccccc1 | > 25 µM (inactive) | > 25 | > 25 | 14.4 µM | 12.8 | 15.9
Cc1ccc(NC(=S)N(CCCN2CCCC2)Cc2cccn2Cc2ccc(Cl)cc2)cc1Cl | – | > 25 | 23.1 | > 25 µM (inactive) | > 25 | > 25
CO/N=C\CC(=O)Nc1ccc(Oc2ccccc2)cc1 | > 25 µM (inactive) | > 25 | > 25 | 7.97 µM | 9.14 | 6.8
Cc1cc(NC(=O)CSc2nc(-c3cccs3)nc3ccccc23)no1 | > 25 µM (inactive) | > 25 | > 25 | 17.5 µM (inactive) | 14.4 | 20.6
CN(C)c1ccc(NC(=O)CSc2nc3ccccc3c(=O)n2C2CCCCC2)cc1 | > 25 µM (inactive) | > 25 | > 25 | – | > 25 | 20
CCN(CC)CCNC(=O)C(Cl)=C1C(Cl)=C(Cl)C(Cl)=C1Cl | 21.4 µM (inactive) | 20.2 | 22.7 | > 25 µM (inactive) | > 25 | > 25
C[C@@]12C(=O)Nc3ccc(Br)cc3C(=O)N1[C@H]1c3cc(Br)ccc3OC[C@@H]1[C@@H]2c1ccccc1 | – | > 25 | > 25 | 4.98 µM | 4.48 | 5.47

SMILES | IC50 cytotoxicity (DAPI nuclear signal decrease) (DAPI; mean of runs) | IC50 cytotoxicity (DAPI nuclear signal decrease) (DAPI; run 1) [µM] | IC50 cytotoxicity (DAPI nuclear signal decrease) (DAPI; run 2) [µM] | IC50 (TAG; mean of runs) | IC50 (TAG; run 1) [µM] | IC50 (TAG; run 2) [µM]
CCN(CC)CCNc1nc2cc(OC)c(OC)cc2c2nc(-c3ccccc3)nn12 | > 25 µM (inactive) | > 25 | > 25 | > 25 µM (inactive) | > 25 | > 25
COc1ccc(C2NCCc3c2[nH]c2ccccc32)cc1CSc1nc2ccccc2s1 (stereo unspecified) | – | > 25 | 24.6 | > 25 µM (inactive) | > 25 | > 25
CN(Cc1ccccc1)C(=O)c1ccc(Nc2nc(C(N)Cc3ccccc3)cs2)nc1 (stereo unspecified) | > 25 µM (inactive) | > 25 | > 25 | – | 20.9 | > 25
CCN1CCN(Cc2ccc(NC(=O)c3ccc(C)c(NC(=O)C(=O)c4c[nH]c5ccccc45)c3)cc2C(F)(F)F)CC1 | 23.8 µM (inactive) | 24.4 | 23.1 | 4.98 µM | 6.17 | 3.8
Cc1c(C#N)c(O)n(CCO)c(=O)c1N=Nc1ccc2c(c1)COC2=O | 19.9 µM (inactive) | 24.4 | 15.3 | 16.5 µM (inactive) | 14.3 | 18.6
Cc1cccc(NC(=O)C(C)Sc2nc3ccccc3c(=O)n2CCCN2CCOCC2)c1 (stereo unspecified) | > 25 µM (inactive) | > 25 | > 25 | 20.5 µM (inactive) | 20.6 | 20.5
CCC(C)NCCOCCOc1ccc(Cl)c2ccccc12 (stereo unspecified) | > 25 µM (inactive) | > 25 | > 25 | – | > 25 | 17.7
CCCCCc1cc(=O)oc2c(C(CCN3CCCC3)c3cc(OC)c(OC)c(OC)c3)c(OC)cc(OC)c12 (stereo unspecified) | 20.2 µM (inactive) | 20.1 | 20.2 | – | > 25 | 17.4
Cc1cc(NC(=O)c2ccccc2F)n(-c2nc3ccccc3[nH]2)n1 | > 25 µM (inactive) | > 25 | > 25 | 16.8 µM (inactive) | 16.8 | 16.9
OCCCn1c(C2CCCN2c2nc(-c3ccc(Cl)cc3)cs2)nc2cc(Cl)c(N3CCCCC3)cc21 (stereo unspecified) | > 25 µM (inactive) | > 25 | > 25 | – | 24.6 | > 25
CCCCCc1cc(=O)oc2c(C(CCN(CC)CC)c3cc(OC)c(OC)c(OC)c3)c(OC)cc(OC)c12 (stereo unspecified) | > 25 µM (inactive) | > 25 | > 25 | > 25 µM (inactive) | > 25 | > 25
CCN(CC)CCC(c1ccc2c(c1)OCO2)c1c(OC)cc(OC)c2c(-c3ccccc3)cc(=O)oc12 (stereo unspecified) | > 25 µM (inactive) | > 25 | > 25 | > 25 µM (inactive) | > 25 | > 25
O=C(/C=C/Sc1ccc(C(F)(F)F)cn1)c1ccccc1 | – | 21 | > 25 | > 25 µM (inactive) | > 25 | > 25
CC(C)c1ccc(Nc2ncc3c(n2)CCN(C(=O)Nc2ccc(F)c(Cl)c2)C3)cc1 | – | > 25 | > 25 | 4.65 µM | 2.95 | 6.36
COc1cccc(Nc2nnc(SCc3cc([N+](=O)[O-])cc4c3OCOC4)s2)c1 | > 25 µM (inactive) | > 25 | > 25 | > 25 µM (inactive) | > 25 | > 25
CC(C)(C)NCCC(O)c1cc(C(F)(F)F)nc2c(C(F)(F)F)cccc12 (stereo unspecified) | > 25 µM (inactive) | > 25 | > 25 | 11.2 µM | 11.5 | 11
Cc1ccc(CN(C)C(=O)CN2C(=O)NC3(CCCc4ccccc43)C2=O)c(C)c1 (stereo unspecified) | > 25 µM (inactive) | > 25 | > 25 | – | 21.7 | > 25
